This is an account of results in patent US10183950B2, “Thienopyrimidine inhibitors of atypical protein kinase C” (Cancer Research Technology Limited, priority 2011, dated 2019).

By IC50 is commonly meant the point on the concentration scale where inhibition reaches its midpoint.

The target in the first experiment is T1, kinase-domain human PKCι (Homo sapiens, UniProt P41743).
T1 construct: Recombinant, kinase-domain human PKCι is expressed and purified in-house; made in house
T1 sequence (P41743 254-522 limits assumed): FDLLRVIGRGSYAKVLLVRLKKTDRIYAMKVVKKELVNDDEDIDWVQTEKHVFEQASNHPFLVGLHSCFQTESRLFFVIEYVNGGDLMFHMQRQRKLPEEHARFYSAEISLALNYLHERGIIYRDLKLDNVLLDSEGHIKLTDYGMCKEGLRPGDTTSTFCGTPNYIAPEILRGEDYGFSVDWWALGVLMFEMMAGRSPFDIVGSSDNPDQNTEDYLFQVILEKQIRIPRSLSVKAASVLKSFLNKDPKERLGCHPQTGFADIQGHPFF
Description: PKCι IC50 IMAP fluorescence polarisation assay, kinase-domain enzyme. The format is biochemical. The settings on record: kinase domain PKCi at 2 μM ATP; read-out: IC50 in IMAP assay against kinase domain PKCi. The protocol: Assays are based on the ability of PKCι to phosphorylate a commercially available peptide substrate in vitro. […] Recombinant, full-length human PKCι expressed in Sf21 insect cells is also commercially available. Recombinant, kinase-domain human PKCι is expressed and purified in-house.
The procedure below explains how dose response curves for inhibitors of PKCι are obtained.
Compounds to be tested are dissolved in 100% DMSO. […] 1 μl is plated into 384 well black low-binding flat bottomed assay plates which are used immediately. Dilutions and additions of compound to assay plates are carried out using Matrix WellMate® and Matrix PlateMate® Plus liquid handling systems.
The final concentration of peptide substrate in the assay is 100 nM. […] Relevant controls are included, namely no compound and no enzyme. […] The reaction is allowed to incubate for 60 minutes at room temperature, before the reaction is stopped and developed by the addition of 20 μl IMAP™ development reagent (Molecular Devices). IMAP development reagent consists of 0.25% (v/v) IMAP progressive binding reagent, 17% (v/v) IMAP progressive binding buffer A and 3% (v/v) IMAP progressive binding buffer B. The plates are then incubated for 2 hours at room temperature before being read using an appropriate plate reader, for example a Molecular Devices HT Analyst or a BMG Pherastar.
Background: Polarisation of emitted light reports the rotation of a fluorescent probe.
Take `C[C@H](N)CNc1nc(-c2ccncc2)nc2c1sc1ncccc12` [compound 378, (S)-N*1*-(2-Pyridin-4-yl-pyrido[3′,2′:4,5]thieno[3,2-d]pyrimidin-4-yl)-propane-1,2-diamine]: the IC50 was 1 to 10 µM.
For the molecule `C[C@@H](N)CNc1nc(-c2ccncc2)nc2c1sc1ncccc12` [compound 379, (R)-N*1*-(2-Pyridin-4-yl-pyrido[3′,2′:4,5]thieno[3,2-d]pyrimidin-4-yl)-propane-1,2-diamine], the IC50 was 10 to 40 µM.

Staying with this experiment, now noted: kinase domain PKCi at 2 μM ATP; read-out: IC50 in IMAP assay against kinase domain PKCi (Activity).
As to `CC(C)Cc1csc2nc(-c3ccncc3)nc(NCCN)c12` [compound 28, N*1*-(5-Isobutyl-2-pyridin-4-yl-thieno[2,3-d]pyrimidin-4-yl)-ethane-1,2-diamine], the IC50 lay in the range of 0.1 to 1 µM.
For the molecule `c1cncc(CN2CCN(c3nc(-c4ccncc4)nc4sc5c(c34)CCCC5)CC2)c1` [compound 130, 2-Pyridin-4-yl-4-(4-pyridin-3-ylmethyl-piperazin-1-yl)-5,6,7,8-tetrahydro-benzo[4,5]thieno[2,3-d]pyrimidine], the concentration for half-maximal inhibition (IC50) lay in the range of 10 to 40 µM.
On the same count and under the same terms, the same measure for `COc1ccc(C[C@@H](N)COc2nc(-c3ccncc3)nc3sc4c(c23)CCCC4)cc1` [compound 169, (R)-1-(4-Methoxy-benzyl)-2-(2-pyridin-4-yl-5,6,7,8-tetrahydro-benzo[4,5]thieno[2,3-d]pyrimidin-4-yloxy)-ethylamine]: 10 to 40 µM; for `c1cc(-c2nc(N[C@@H]3CCNC3)c3c4c(sc3n2)CCCC4)ccn1` [compound 19, (2-pyridin-4-yl-5,6,7,8-tetrahydro-benzo[4,5]thieno[2,3-d]pyrimidin-4-yl)-(R)-pyrrolidin-3-yl-amine]: 0.1 to 1 µM; for `Clc1ccccc1CN1CCN(c2nc(-c3ccncc3)nc3sc4c(c23)CCCC4)CC1` [compound 123, 4-[4-(2-Chloro-benzyl)-piperazin-1-yl]-2-pyridin-4-yl-5,6,7,8-tetrahydro-benzo[4,5]thieno[2,3-d]pyrimidine]: 10 to 40 µM.
For the molecule `C[C@H](N)CNc1nc(-c2ccncc2)nc2sc3c(c12)CCCCCC3` [compound 25, (S)-N*1*-(2-Pyridin-4-yl-5,6,7,8,9, 10-hexahydro-11-thia-1,3-diaza-cycloocta[a]inden-4-yl)-propane-1,2-diamine], the IC50 was 1 to 10 µM.
As for `C[C@@H](N)CNc1nc(-c2cn[nH]c2)nc2sc3c(c12)CCCC3` [compound 188, (R)-N*1*-[2-(1H-Pyrazol-4-yl)-5,6,7,8-tetrahydro-benzo[4,5]thieno[2,3-d]pyrimidin-4-yl]-propane-1,2-diamine], the IC50 lay in the range of 1 to 10 µM.
The same measure, in the same setting: the same measure for `CN(C)CCNc1nc(-c2ccncc2)nc2sc3c(c12)CCCC3` [compound 1, N,N-dimethyl-N′-(2-pyridin-4-yl-5,6,7,8-tetrahydro-benzo[4,5]thieno[2,3-d]pyrimidin-4-yl)-ethane-1,2-diamine]: 1 to 10 µM; for `N[C@H](COc1nc(-c2ccncc2)nc2sc3c(c12)CCCC3)Cc1ccc2ccccc2c1` [compound 160, (S)-1-Naphthalen-2-ylmethyl-2-(2-pyridin-4-yl-5,6,7,8-tetrahydro-benzo[4,5]thieno[2,3-d]pyrimidin-4-yloxy)-ethylamine]: 10 to 40 µM; for `FC(F)(F)c1ccc(CN2CCN(c3nc(-c4ccncc4)nc4sc5c(c34)CCCC5)CC2)cc1` [compound 121, 2-Pyridin-4-yl-4-[4-(4-trifluoromethyl-benzyl)-piperazin-1-yl]-5,6,7,8-tetrahydro-benzo[4,5]thieno[2,3-d]pyrimidine]: 10 to 40 µM.
As to `Cc1c(C(N)=O)sc2nc(-c3ccncc3)nc(NCCN)c12` [compound 39, 4-(2-Amino-ethylamino)-5-methyl-2-pyridin-4-yl-thieno[2,3-d]pyrimidine-6-carboxylic acid amide], the IC50 lay within 0.1 to 1 µM.
On the same count and under the same terms, the same measure for `c1ccc(CN2CCN(c3nc(-c4ccncc4)nc4sc5c(c34)CCCC5)CC2)nc1` [compound 120, 2-Pyridin-4-yl-4-(4-pyridin-2-ylmethyl-piperazin-1-yl)-5,6,7,8-tetrahydro-benzo[4,5]thieno[2,3-d]pyrimidine]: 10 to 40 µM.
